Results taken from patent publication US9506031B2, “Methods and materials for increasing potency of cells” (University of Central Florida Research Foundation, Inc., priority 2004, dated 2016).

Tested on: human mesenchymal stem cells (MeSCs)
Test: Cardiac differentiation of human MeSCs in co-culture with cardiomyocytes (H9c2), RT-PCR with cardiac specific primers
Type: cell-based
Details: BrdU and/or 5-azaC 1-10 uM for 3 weeks, or nanog vector transfection; then co-culture with cardiomyocytes
Source text: Cardiac differentiation of human mesenchymal stem cells (MeSCs) is achieved through treatment with nucleotide derivatives BrdU and 5-azaC and/or forced expression of embryonic stem cell gene nanog. Following treatment, cells were placed in a co-culture with cardiac cells (cardiomyocyte cell line H9c2). Human MeSCs plated in 6-well culture plates and expanded in serum-DMEM (Delbecco's Modified Eagle's Medium) containing 10% MeSC formulated fetal bovine serum (FBS, Stem Cell, Inc) containing antibiotics/antimycotics. MeSCs were treated with varying concentrations (1-10 uM) of BrdU and/or 5-azaC for 3 weeks or transfected with mammalian expression vector containing a nanog encoding sequence. Cell media was changed every three days prior to co-culture with cardiomyocytes. Cardiomyocytes were expanded and grown to near confluence in serum-DMEM with 10% non-conditioned FBS and antibiotics/antimycotics. To differentiate cardiac cells, serum media was replaced with plain DMEM containing only antibiotics and allowed to differentiate. Co-cultures were created by combining MeSCs with cardiac cells and culturing in cardiac media. Following co-culture, cells were treated with TRIzol and gene expression was assessed using RT-PCR and cardiac specific primers. […]

SMILES | expression of cardiac specific genes (RT-PCR, gel electrophoresis)
Nc1ncn([C@@H]2O[C@H](CO)[C@@H](O)[C@H]2O)c(=O)n1 [5-azaC] | expression of cardiac specific genes
O=c1[nH]c(=O)n([C@H]2C[C@H](O)[C@@H](CO)O2)cc1Br [BrdU] | expression of cardiac specific genes
